Assays:
[1] = system: phosphate transport; settings: cited from earlier work; for influence of presence or absence of luminal Ca on phosphate transport: vascular perfusion, 65 pM 1,25-dihydroxyvitamin D3 or 6.5 nM 24,25-dihydroxyvitamin D3
[2] = system: atopic dermatitis; experiment: Topical vitamin D cream in eczema / atopic dermatitis patients, case reports (Examples 1-6); settings: for effect of prior treatment on itch / effect of prior treatment on redness: prior treatments of the Example 3 patient, per parent
Text: Person, diagnosed with atopic dermatitis. […] Prior treatments consisted of:
We apply the cream after bathing, before bedtime, and during the night, when needed for itching. […]
Adult […]. […] A vitamin D (400 IU/g) cream was applied. […]

[3] = system: lesions from atopic dermatitis; settings: five patients; calcipotriol 50 ug/g and maxacalitriol 25 ug/g, ointment; cited from earlier work
[4] = system: pruritus; experiment: Dose response of pruritus scores against vitamin D concentration (the FIGURE); type: in vivo, human; settings: topical application; read from the dose response graph
Text: The FIGURE is a graph illustrating the dose response experimental data in terms of pruritus scores on the vertical scale and a vitamin D concentration in international units per gram (IU/g) on the horizontal scale, with up to four different timing parameters represented by adjacent differentiated bars for each concentration. Pruritus relief is the fastest observed benefit after topical application of our claimed formulations. The graph below indicates an effective concentration as low as 50 IU/g. This is also an indication of bioavailability of vitamin D and therefore an indication of the lowest effective concentration for the treatment of additional symptoms of eczema.

[5] = system: phosphate metabolism; settings: Cross and Peterlik 1981; cited from earlier work

C=C1/C(=C\C=C2/CCC[C@]3(C)[C@@H]([C@H](C)CCCC(C)(C)O)CC[C@@H]23)C[C@@H](O)C[C@@H]1O [1,25-dihydroxyvitamin D3]
influence of presence or absence of luminal Ca on phosphate transport [1]: did not influence

C=C1CCC(O)C/C1=C\C=C1\CCCC2(C)C1CCC2C(C)CCC(O)C(C)(C)O (stereo not drawn) [24,25-dihydroxyvitamin D3]
influence of presence or absence of luminal Ca on phosphate transport [1]: did not influence

C=C1CC[C@H](O)C/C1=C/C=C1\CCC[C@]2(C)[C@@H]([C@H](C)CCCC(C)(C)O)CC[C@@H]12 [25-hydroxyvitamin D3]
stimulation of phosphate transport relative to the normal concentration (100 nM) ([1]; subnormal concentration (20 nM)): much higher rates
phosphate transport, luminal Ca present ([1]; vascular perfusion with 100 nM 25-hydroxyvitamin D3): stimulated

CC1(C)O[C@@H]2C[C@H]3[C@@H]4CCC5=CC(=O)C=C[C@]5(C)[C@H]4[C@@H](O)C[C@]3(C)[C@]2(C(=O)CO)O1 [Desonide 0.5%, Desonide]
effect of prior treatment on itch [2]: gives itch relief
effect of prior treatment on redness [2]: reduces redness

CC(=O)OCC(=O)[C@@]12OC(C)(C)O[C@@H]1C[C@H]1[C@@H]3C[C@H](F)C4=CC(=O)C=C[C@]4(C)[C@@]3(F)[C@@H](O)C[C@@]12C [Fluocinonide 0.05%, Fluocinonide]
effectiveness of prior treatment ([2]; prior treatment of the Example 5 patient, self-reported): fairly effective

CCCCC(=O)O[C@]1(C(=O)CO)CC[C@H]2[C@@H]3CCC4=CC(=O)CC[C@]4(C)[C@H]3[C@@H](O)C[C@@]21C [Hydrocort Val 02%]
effect of prior treatment on itch [2]: did not help
effect of prior treatment on redness [2]: did not help

Cl.OCCOCCN1CCN(C(c2ccccc2)c2ccc(Cl)cc2)CC1 (stereo not drawn) [Hydroxyz Hcl 10 mg]
sleepiness under prior treatment ([2]; human, in vivo): made their sleepy
effect of prior treatment on itch [2]: did not help

C=C1/C(=C\C=C2/CCC[C@]3(C)[C@@H]([C@H](C)/C=C/[C@@H](O)C4CC4)CC[C@@H]23)C[C@@H](O)C[C@@H]1O [calcipotriol]
effect on lesions from atopic dermatitis [3]: improvement of lesions

C=C1/C(=C\C=C2/CCC[C@]3(C)[C@@H]([C@H](C)OCCC(C)(C)O)CC[C@@H]23)C[C@@H](O)C[C@@H]1O [maxacalitriol]
effect on lesions from atopic dermatitis [3]: improvement of lesions

C=C1CC[C@H](O)C/C1=C/C=C1\CCC[C@]2(C)[C@@H]([C@H](C)CCCC(C)C)CC[C@@H]12 [vitamin D, cholecalciferol]
lowest effective concentration for pruritus relief [4]: 50 IU/g
activity with respect to phosphate metabolism [5]: active
